According to ChEMBL document CHEMBL2401711, “Recent progress and future options in the development of GLP-1 receptor agonists for the treatment of diabesity” (Bioorg Med Chem Lett, 2013):
Blank lines part the entries; values can stand above or below the compound they belong to.

Columns and labels:
[1] = (§1) Half life in human; assay type: ADME, organism-based; settings: in vivo
Albumin = Albumin (Homo sapiens, UniProt P02768); test: Binding affinity to serum albumin (unknown origin) relative to control; assay type: ADME; settings: isolated protein
Homo sapiens [2] = test: Toxicity in type 2 diabetes patient assessed as gastro-intestinal side effects at 10 to 20 mg administered once per week up to 104 weeks; assay type: organism-based; settings: in vivo, 17472 h
Homo sapiens [3] = species on record: Homo sapiens; test: as §1; assay type: ADME, organism-based; settings: in vivo
[4] = Terminal half life in type 2 diabetes patient at 10 ug, sc bid; assay type: ADME, organism-based; settings: human, in vivo, read-out: beta t1/2 (converted)
Homo sapiens [5] = test: Antidiabetic activity in type 2 diabetes patient assessed as reduction of body weight at => 0.8 mg administered once per week measured after 12 weeks (reference value: 1.2 kg); assay type: functional, organism-based
Homo sapiens [6] = test: Antidiabetic activity in type 2 diabetes patient assessed as reduction of HbA1c at => 0.2 mg administered once per week measured after 12 weeks (reference value: 0.5%); assay type: functional, organism-based; set-up: scale not given: the % may be the effect or the level left

Chain of Albumin (P02768 whole entry): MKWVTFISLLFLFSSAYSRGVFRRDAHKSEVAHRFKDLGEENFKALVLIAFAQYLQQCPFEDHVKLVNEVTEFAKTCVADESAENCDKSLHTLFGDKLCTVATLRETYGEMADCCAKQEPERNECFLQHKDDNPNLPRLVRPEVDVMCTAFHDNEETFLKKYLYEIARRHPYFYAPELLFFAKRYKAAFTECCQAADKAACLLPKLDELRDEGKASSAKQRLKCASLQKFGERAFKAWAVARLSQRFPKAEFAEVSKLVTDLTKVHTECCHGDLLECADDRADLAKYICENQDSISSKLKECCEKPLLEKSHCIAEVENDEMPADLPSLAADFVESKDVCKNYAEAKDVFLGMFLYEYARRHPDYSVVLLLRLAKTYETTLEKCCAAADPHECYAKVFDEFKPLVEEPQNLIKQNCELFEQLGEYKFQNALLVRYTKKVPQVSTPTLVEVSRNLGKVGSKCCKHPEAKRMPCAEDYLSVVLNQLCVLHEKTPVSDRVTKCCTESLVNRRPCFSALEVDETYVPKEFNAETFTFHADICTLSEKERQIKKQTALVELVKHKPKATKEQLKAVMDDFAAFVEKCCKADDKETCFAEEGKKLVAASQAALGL

Compound: TASPOGLUTIDE
Activity (Homo sapiens [2]): 34%

Compound: SEMAGLUTIDE [listing 2 of 2 here]
Activity (Homo sapiens [5]): < 4.8 kg
Activity (Homo sapiens [6]): < 1.7%

Second part, the compound after the results:

half-life [1]: 11 days
Activity (Albumin): 99%
Compound: CCCCCCCCCCCCCCCC(=O)N[C@@H](CCC(=O)NCCCC[C@H](NC(=O)[C@H](C)NC(=O)[C@H](C)NC(=O)[C@H](CCC(N)=O)NC(=O)CNC(=O)[C@H](CCC(=O)O)NC(=O)[C@H](CC(C)C)NC(=O)[C@H](Cc1ccc(O)cc1)NC(=O)[C@H](CO)NC(=O)[C@H](CO)NC(=O)[C@@H](NC(=O)[C@H](CC(=O)O)NC(=O)[C@H](CO)NC(=O)[C@@H](NC(=O)[C@H](Cc1ccccc1)NC(=O)[C@@H](NC(=O)CNC(=O)[C@H](CCC(=O)O)NC(=O)[C@H](C)NC(=O)[C@@H](N)Cc1cnc[nH]1)[C@@H](C)O)[C@@H](C)O)C(C)C)C(=O)N[C@@H](CCC(=O)O)C(=O)N[C@@H](Cc1ccccc1)C(=O)N[C@H](C(=O)N[C@@H](C)C(=O)N[C@@H](Cc1c[nH]c2ccccc12)C(=O)N[C@@H](CC(C)C)C(=O)N[C@H](C(=O)N[C@@H](CCCNC(=N)N)C(=O)NCC(=O)N[C@@H](CCCNC(=N)N)C(=O)NCC(=O)O)C(C)C)[C@@H](C)CC)C(=O)O [LIRAGLUTIDE]

t1/2 (Homo sapiens [3]): 160 h
Compound: SEMAGLUTIDE [listing 1 of 2 here]

half-life [4]: 144 min
Compound: CC[C@H](C)[C@H](NC(=O)[C@H](C)NC(=O)CNC(=O)[C@H](Cc1ccccc1)NC(=O)[C@H](CC(N)=O)NC(=O)[C@H](CC(N)=O)NC(=O)[C@H](CO)NC(=O)[C@H](CO)NC(=O)[C@H](Cc1c[nH]cn1)NC(=O)[C@@H](NC(=O)[C@H](CC(C)C)NC(=O)[C@H](Cc1ccccc1)NC(=O)[C@H](CC(N)=O)NC(=O)[C@H](C)NC(=O)[C@H](CC(C)C)NC(=O)[C@H](CCCNC(=N)N)NC(=O)[C@H](CCC(N)=O)NC(=O)[C@@H](NC(=O)[C@H](C)NC(=O)[C@@H]1CSSC[C@H](NC(=O)[C@@H](N)CCCCN)C(=O)N[C@@H](CC(N)=O)C(=O)N[C@@H]([C@@H](C)O)C(=O)N[C@@H](C)C(=O)N[C@@H]([C@@H](C)O)C(=O)N1)[C@@H](C)O)C(C)C)C(=O)N[C@@H](CC(C)C)C(=O)N[C@@H](CO)C(=O)N[C@@H](CO)C(=O)N[C@H](C(=O)N[C@@H](CC(N)=O)C(=O)N[C@H](C(=O)NCC(=O)N[C@@H](CO)C(=O)N[C@@H](CC(N)=O)C(=O)N[C@H](C(=O)N[C@@H](Cc1ccc(O)cc1)C(=O)O)[C@@H](C)O)C(C)C)[C@@H](C)O [AMYLIN]
